In one assay the target is T1, 5-HT7 receptor (Homo sapiens, UniProt P34969).
T1 construct: purchased PerkinElmer
As to the kind of experiment: Radioligand binding assay, serotoninergic 5-HT7 receptors. Particulars: binding assay result in %, Table 5a. In short, it runs like this: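 Competition binding at human 5-HT7 receptors with a radioligand, detected by scintillation counting; non-specific binding was defined with excess unlabelled ligand. IC50 came from Hill-equation fits of competition curves, and Ki from Cheng–Prusoff using radioligand concentration and Scatchard-derived KD.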

Assay [1] deals with dopaminergic receptors D2 (Homo sapiens, UniProt P14416). The assay is described as follows: Radioligand binding assay, dopaminergic D2 receptors. Particulars: for inhibition at 1 µM: binding assay, test compound 1×10^−6 M; for Ki: read-out: Inhibition constants Ki for D2 receptors, D2. Summed up: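 Radioligand displacement was measured by scintillation counting, with non-specific binding defined in the presence of excess unlabelled ligand. Competition curves were fitted to the Hill equation to give IC50, and Ki was derived by the Cheng–Prusoff equation.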

The next assay addresses T2, α2C adrenergic receptors (Homo sapiens, UniProt P18825).
T2 construct: expressed in transfected cells; host or cells: CHO cells
T2 sequence (P18825 1-462): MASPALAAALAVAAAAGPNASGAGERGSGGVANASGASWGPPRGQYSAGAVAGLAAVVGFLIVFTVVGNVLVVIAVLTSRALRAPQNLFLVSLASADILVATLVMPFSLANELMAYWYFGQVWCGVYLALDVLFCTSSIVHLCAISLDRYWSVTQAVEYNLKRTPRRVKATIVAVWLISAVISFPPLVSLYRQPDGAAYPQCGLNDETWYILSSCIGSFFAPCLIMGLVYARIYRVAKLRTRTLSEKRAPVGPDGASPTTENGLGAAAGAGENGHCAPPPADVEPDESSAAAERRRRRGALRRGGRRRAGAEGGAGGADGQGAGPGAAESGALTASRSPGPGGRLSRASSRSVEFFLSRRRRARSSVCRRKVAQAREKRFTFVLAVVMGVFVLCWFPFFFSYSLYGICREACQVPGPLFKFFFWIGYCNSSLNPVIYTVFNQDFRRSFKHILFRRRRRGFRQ
As to the kind of experiment: Radioligand binding assay, adrenergic α2C receptors. Particulars: test compound 1×10^−6 M. An excerpt: (§1) The specific ligand binding to the receptors is defined as the difference between the total binding and the non-specific binding determined in the presence of the excess of unlabelled ligand.
(§2) The results are expressed as a percent of control specific binding ((measured specific binding/control specific binding)×100) and as a percent inhibition of control specific binding (100−((measured specific binding/control specific binding)×100)) obtained in the presence of the test compounds. The specific ligand binding to the receptors is defined as the difference between the total binding and the nonspecific binding determined in the presence of an excess of unlabelled ligand. Scintillation counting was the method of detection of ligand binding. The IC50 values (concentration causing a half-maximal inhibition of control specific binding) were determined by non-linear regression analysis of the competition curves generated with mean replicate values using Hill equation curve fitting (Y=D+[(A−D)/(1+(C/C50)nH)], where Y=specific binding, D=minimum specific binding, A=maximum specific binding, C=compound concentration, C50=IC50, and nH=slope factor). This analysis was performed using a software developed at Cerep (Hill software) and validated by comparison with data generated by the commercial software SigmaPlot® 4.0 for Windows® (© 1997 by SPSS Inc.). The inhibition constants (Ki) were calculated using the Cheng Prusoff equation (Ki=IC50/(1+(L/KD)), where L=concentration of radioligand in the assay, and KD=affinity of the radioligand for the receptor). A scatchard plot was used to determine the Kd.
Experimental conditions for tests are given in Table 7, and results of tests for representative compounds are given in Tables 8 (α1 receptors) and in Tables 9 (α2C receptors).

A further assay concerns the target T3, 5-HT2C receptor (Homo sapiens, UniProt P28335).
T3 construct: expressed in transfected cells; host or cells: HEK-293 cells
T3 sequence (P28335 33-458): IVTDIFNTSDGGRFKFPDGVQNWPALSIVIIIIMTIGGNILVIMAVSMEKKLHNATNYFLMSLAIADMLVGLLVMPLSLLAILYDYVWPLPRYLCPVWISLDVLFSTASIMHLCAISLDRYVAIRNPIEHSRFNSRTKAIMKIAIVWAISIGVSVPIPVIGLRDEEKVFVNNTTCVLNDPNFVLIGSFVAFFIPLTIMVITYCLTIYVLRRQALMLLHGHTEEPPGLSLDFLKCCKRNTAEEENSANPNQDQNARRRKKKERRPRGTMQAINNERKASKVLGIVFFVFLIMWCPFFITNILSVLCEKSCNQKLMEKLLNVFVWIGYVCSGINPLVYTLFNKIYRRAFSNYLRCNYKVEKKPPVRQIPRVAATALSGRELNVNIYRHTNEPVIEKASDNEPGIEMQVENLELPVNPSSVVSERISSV
As to the kind of experiment: Radioligand binding assay, serotoninergic 5-HT2C receptors. Particulars: test compound 1×10^−6 M.
Excerpt: as §1, §2
Experimental conditions for tests are given in Table 4, and results of tests for representative compounds of the invention are given in Table 5a and 5b (receptors 5-HT1A, 5-HT2A, 5-HT6 and 5-HT7) and in Table 6 (receptors 5-HT2C).

Assay [2] has as its target T4, H1 histaminergic receptors (Homo sapiens, UniProt P35367).
T4 construct: expressed in transfected cells; host or cells: HEK-293 cells
The assay is described as follows: Radioligand binding assay, histaminergic H1 receptors. Particulars: human recombinant (HEK-293 cells), [3H]pyrilamine 1 nM.
Excerpt: as §1, §2
Experimental conditions for tests are given in Table 14, and results of tests for representative compounds are presented in Table 15.

Assay [3] addresses T5, 5-HT1A receptor (rat hippocampus) (Rattus norvegicus, UniProt P19327).
T5 construct: hippocampus; from tissue; host or cells: rat hippocampus
T5 sequence (P19327 1-422): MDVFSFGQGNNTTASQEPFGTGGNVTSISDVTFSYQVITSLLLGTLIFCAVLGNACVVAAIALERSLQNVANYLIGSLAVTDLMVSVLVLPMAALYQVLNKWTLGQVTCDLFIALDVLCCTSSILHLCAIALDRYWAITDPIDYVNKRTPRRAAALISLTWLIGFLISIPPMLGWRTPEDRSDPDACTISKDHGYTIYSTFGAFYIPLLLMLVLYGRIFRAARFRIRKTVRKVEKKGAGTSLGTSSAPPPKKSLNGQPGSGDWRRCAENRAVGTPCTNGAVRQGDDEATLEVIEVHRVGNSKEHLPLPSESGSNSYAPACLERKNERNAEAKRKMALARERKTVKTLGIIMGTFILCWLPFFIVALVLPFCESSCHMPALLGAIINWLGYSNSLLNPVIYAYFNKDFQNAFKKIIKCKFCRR
As to the kind of experiment: Radioligand binding assay, serotoninergic 5-HT1A receptors. Particulars: binding assay result in %, Table 5a.

Assay [4] deals with T6, serotonin transporter (SERT) (Homo sapiens, UniProt P31645).
T6 construct: expressed in transfected cells; host or cells: CHO cells
The assay is described as follows: Radioligand binding assay, serotonin transporter (SERT). Conditions: binding assay, test compound 1×10^−6 M. Summed up:
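Radioligand competition binding with scintillation detection; specific binding is total minus binding under excess unlabelled ligand. Reported as % of control specific binding or % inhibition; IC50 from Hill-equation non-linear regression of competition curves, and Ki via Cheng-Prusoff using radioligand concentration and Scatchard-derived KD.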

T6 sequence (P31645 whole entry): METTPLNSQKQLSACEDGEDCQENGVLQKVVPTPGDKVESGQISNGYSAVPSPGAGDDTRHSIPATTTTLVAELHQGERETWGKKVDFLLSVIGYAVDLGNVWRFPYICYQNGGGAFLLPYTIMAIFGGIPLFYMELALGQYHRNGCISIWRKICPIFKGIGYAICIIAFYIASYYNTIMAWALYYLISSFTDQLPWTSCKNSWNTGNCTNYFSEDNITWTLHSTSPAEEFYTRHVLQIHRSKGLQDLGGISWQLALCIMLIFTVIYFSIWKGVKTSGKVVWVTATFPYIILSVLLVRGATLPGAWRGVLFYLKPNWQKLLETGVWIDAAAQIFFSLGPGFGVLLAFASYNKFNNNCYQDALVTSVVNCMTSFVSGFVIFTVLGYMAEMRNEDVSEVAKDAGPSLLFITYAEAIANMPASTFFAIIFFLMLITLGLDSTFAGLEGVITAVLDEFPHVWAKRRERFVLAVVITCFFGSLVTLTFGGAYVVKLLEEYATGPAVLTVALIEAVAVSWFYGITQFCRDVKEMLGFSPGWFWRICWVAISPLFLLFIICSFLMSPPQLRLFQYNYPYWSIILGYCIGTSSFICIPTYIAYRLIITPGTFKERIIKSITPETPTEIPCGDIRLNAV
T1 sequence (P34969 whole entry): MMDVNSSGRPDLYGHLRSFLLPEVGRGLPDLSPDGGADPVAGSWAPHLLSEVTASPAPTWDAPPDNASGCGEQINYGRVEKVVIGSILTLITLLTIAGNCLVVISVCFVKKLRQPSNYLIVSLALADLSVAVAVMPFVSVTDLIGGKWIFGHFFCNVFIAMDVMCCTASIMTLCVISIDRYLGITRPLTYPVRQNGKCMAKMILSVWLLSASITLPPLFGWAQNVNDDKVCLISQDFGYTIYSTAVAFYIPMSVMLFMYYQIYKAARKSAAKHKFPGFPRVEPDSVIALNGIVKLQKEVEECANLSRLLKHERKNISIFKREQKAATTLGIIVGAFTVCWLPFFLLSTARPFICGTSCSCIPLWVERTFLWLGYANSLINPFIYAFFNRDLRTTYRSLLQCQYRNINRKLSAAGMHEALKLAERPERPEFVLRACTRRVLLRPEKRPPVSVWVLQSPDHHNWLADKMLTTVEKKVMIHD
Chain of dopaminergic receptors D2 (P14416 whole entry): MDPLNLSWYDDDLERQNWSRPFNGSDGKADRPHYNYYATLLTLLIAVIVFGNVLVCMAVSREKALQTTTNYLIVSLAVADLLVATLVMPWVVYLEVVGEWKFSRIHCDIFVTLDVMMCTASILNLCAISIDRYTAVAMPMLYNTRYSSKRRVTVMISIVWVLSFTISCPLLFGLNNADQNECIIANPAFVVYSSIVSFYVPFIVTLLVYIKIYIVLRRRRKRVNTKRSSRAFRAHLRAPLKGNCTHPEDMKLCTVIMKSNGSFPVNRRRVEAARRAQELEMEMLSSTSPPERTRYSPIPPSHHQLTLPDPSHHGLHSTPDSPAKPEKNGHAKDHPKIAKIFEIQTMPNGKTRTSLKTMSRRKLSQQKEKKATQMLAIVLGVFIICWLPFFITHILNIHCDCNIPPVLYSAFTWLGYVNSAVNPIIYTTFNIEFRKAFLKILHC
T4 sequence (P35367 whole entry): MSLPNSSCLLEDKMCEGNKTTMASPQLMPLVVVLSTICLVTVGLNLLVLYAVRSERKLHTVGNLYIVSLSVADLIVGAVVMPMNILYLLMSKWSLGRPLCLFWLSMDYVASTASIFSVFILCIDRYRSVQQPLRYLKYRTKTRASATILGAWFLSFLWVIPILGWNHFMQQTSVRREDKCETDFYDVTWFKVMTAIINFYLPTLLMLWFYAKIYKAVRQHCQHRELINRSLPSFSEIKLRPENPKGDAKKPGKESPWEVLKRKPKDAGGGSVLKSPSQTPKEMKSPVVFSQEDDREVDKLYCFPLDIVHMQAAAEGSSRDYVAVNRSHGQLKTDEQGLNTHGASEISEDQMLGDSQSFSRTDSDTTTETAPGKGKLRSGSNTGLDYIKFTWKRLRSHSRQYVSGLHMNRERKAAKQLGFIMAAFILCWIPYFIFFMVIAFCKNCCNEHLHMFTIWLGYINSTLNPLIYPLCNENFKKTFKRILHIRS

Usually inhibition stands for the relative decrease from the control value, in per cent. Regarding `O=S(=O)(NC1CCN(CCCc2noc3cc(F)ccc23)C1)c1ccc(Cl)c(F)c1` (stereo not shown) [Compound 11, 4-Chloro-3-fluoro-N-[1-[3-(6-fluoro-1,2-benzoxazol-3-yl)propyl]-pyrrolidin-3-yl]benzene-sulphonamide], the inhibition at 1 µM at 5-HT7 receptor was determined as 97%; in assay [1], 89%; on α2C adrenergic receptors, 71%; on 5-HT2C receptor, 27%; in assay [2], 37%; in assay [3], 60%. The inhibition at 1 µM in assay [4] is -6%.

With `O=S(=O)(NC1CCN(CCCc2noc3cc(F)ccc23)C1)c1cccc2ccccc12` (stereo not shown) [Compound 20, N-[1-[3-(6-Fluoro-1,2-benzoxazol-3-yl)propyl]pyrrolidin-3-yl]naphthalene-1-sulphonamide], the inhibition at 1 µM at 5-HT7 receptor was 98%; in assay [1], 95%; on α2C adrenergic receptors, 78%; at 5-HT2C receptor, 33%; in assay [2] it was 36%; in assay [3] it was 67%. Besides, the inhibition at 1 µM in assay [4] worked out at 6%.

For the compound `O=S(=O)(NC1CCN(CCCc2noc3cc(F)ccc23)C1)c1ccc2ccccc2c1` (stereo not shown) [Compound 21, N-[1-[3-(6-Fluoro-1,2-benzoxazol-3-yl)propyl]pyrrolidin-3-yl]naphthalene-2-sulphonamide], the inhibition at 1 µM is 100% on 5-HT7 receptor; 100% in assay [1]; 78% on α2C adrenergic receptors; 71% on 5-HT2C receptor; 57% in assay [2]; 66% in assay [3]. Besides, in assay [4], the inhibition at 1 µM stood at 59%.

With `O=S(=O)(NC1CCN(CCCc2noc3cc(F)ccc23)C1)c1ccc2cc(Cl)ccc2c1` (stereo not shown) [Compound 23, 6-Chloro-N-[1-[3-(6-fluoro-1,2-benzoxazol-3-yl)propyl]pyrrolidin-3-yl]naphthalene-2-sulphonamide], the inhibition at 1 µM was determined as 95% at 5-HT7 receptor; 100% in assay [1]; 89% at α2C adrenergic receptors; 67% at 5-HT2C receptor; 60% in assay [2]; 24% in assay [3]. Also, the inhibition at 1 µM in assay [4] was found to be 53%.

As for `O=S(=O)(NC1CCN(CCCc2noc3cc(F)ccc23)C1)c1cc2ccccc2s1` (stereo not shown) [Compound 25, N-[1-[3-(6-Fluoro-1,2-benzoxazol-3-yl)propyl]pyrrolidin-3-yl]-benzothiophene-2-sulphonamide], the inhibition at 1 µM on 5-HT7 receptor worked out at 98%; in assay [1] it was 98%; on α2C adrenergic receptors, 90%; on 5-HT2C receptor, 83%; in assay [2], 75%; in assay [3], 74%. Besides, the inhibition at 1 µM in assay [4] came to 42%.

As to `O=S(=O)(NC1CCN(CCCc2noc3cc(F)ccc23)C1)c1csc2ccccc12` (stereo not shown) [Compound 26, N-[1-[3-(6-Fluoro-1,2-benzoxazol-3-yl)propyl]pyrrolidin-3-yl]-benzothiophene-3-sulphonamide], the inhibition at 1 µM on 5-HT7 receptor turned out to be 97%; in assay [1], 98%; on α2C adrenergic receptors it was 76%; on 5-HT2C receptor, 51%; in assay [2], 44%; in assay [3] it was 79%. Also, in assay [4], the inhibition at 1 µM was 66%.

`Cc1c(S(=O)(=O)NC2CCN(CCCc3noc4cc(F)ccc34)C2)sc2ccc(F)cc12` (stereo not shown) [Compound 28, 5-Fluoro-N-[1-[3-(6-fluoro-1,2-benzoxazol-3-yl)propyl]pyrrolidin-3-yl]-3-methyl-benzothiophene-2-sulphonamide]: the inhibition at 1 µM on 5-HT7 receptor is 94%; in assay [1], 97%; on α2C adrenergic receptors, 93%; on 5-HT2C receptor it was 72%; in assay [2], 63%; in assay [3], 61%. The inhibition at 1 µM in assay [4] was 54%.

Regarding `Cc1c(S(=O)(=O)NC2CCN(CCCc3noc4cc(F)ccc34)C2)sc2ccc(Cl)cc12` (stereo not shown) [Compound 29, 5-Chloro-N-[1-[3-(6-fluoro-1,2-benzoxazol-3-yl)propyl]pyrrolidin-3-yl]-3-methyl-benzothiophene-2-sulphonamide], the inhibition at 1 µM at 5-HT7 receptor worked out at 52%; in assay [1], 97%; at α2C adrenergic receptors, 84%; at 5-HT2C receptor it was 28%; in assay [2] it was 59%; in assay [3], 70%. Further, the inhibition at 1 µM in assay [4] was 44%.

One may read the Ki as a measure of affinity in units of concentration, obtained from inhibition or displacement. Turning to `Cc1ccc2sc(S(=O)(=O)N[C@H]3CCN(CCCc4noc5cc(F)ccc45)C3)cc2c1` [Compound 229, N-[(3S)-1-[3-(6-Fluoro-1,2-benzoxazol-3-yl)propyl]pyrrolidin-3-yl]-5-methylbenzothiophene-2-sulphonamide], the inhibition at 1 µM on 5-HT7 receptor came to 99%; in assay [1], 101%; on α2C adrenergic receptors it was 98%; in assay [2], 75%; in assay [3] it was 46%; in assay [4], 50%. Further, in assay [1], the Ki came out at 2.4 nM.

As for `Cc1c(S(=O)(=O)NCC2CCN(CCCc3noc4cc(F)ccc34)C2)sc2ccc(Cl)cc12` (stereo not shown) [Compound 238, 5-Chloro-N-[[1-[3-(6-fluoro-1,2-benzoxazol-3-yl)propyl]pyrrolidin-3-yl]methyl]-3-methyl-benzothiophene-2-sulphonamide], the inhibition at 1 µM amounted to 94% at 5-HT7 receptor; 98% in assay [1]; 94% on α2C adrenergic receptors; 65% in assay [2]; 71% in assay [3]; 64% in assay [4]. Further, the Ki in assay [1] was 3.9 nM.

For the origin of these results see patent US20140135310A1, “SULPHONAMIDE DERIVATIVES OF ALICYCLIC AMINES FOR THE TREATMENT OF CENTRAL NERVOUS SYSTEM DISEASES” (Adamed Sp. z o.o., priority 2011, published 2014).
